Test results: patent US20250281649A1, “PROBE DIRECTED TO ENZYME ALDH1A3 AND USE THEREOF IN THE DIAGNOSIS OF GLIOBLASTOMA” (Universita' Degli Studi Del Piemonte Orientale "A. Avogadro", priority 2021, published 2025)

Tests used:
Test in all cases: IC50 evaluation, NADH formation at 340 nm (Tecan SUNRISE)
Assay type in all cases: biochemical
[1] = target: T1, ALDH1A1 (Homo sapiens, UniProt P00352); settings: ALDH1A1; 20 mM acetaldehyde, 500 μM NAD+, 15% DMSO, 2.7 μM isoenzyme; read-out: IC50
T1 construct: His-tag; made in house; host or cells: bacterial cells
T1 sequence (P00352 1-501): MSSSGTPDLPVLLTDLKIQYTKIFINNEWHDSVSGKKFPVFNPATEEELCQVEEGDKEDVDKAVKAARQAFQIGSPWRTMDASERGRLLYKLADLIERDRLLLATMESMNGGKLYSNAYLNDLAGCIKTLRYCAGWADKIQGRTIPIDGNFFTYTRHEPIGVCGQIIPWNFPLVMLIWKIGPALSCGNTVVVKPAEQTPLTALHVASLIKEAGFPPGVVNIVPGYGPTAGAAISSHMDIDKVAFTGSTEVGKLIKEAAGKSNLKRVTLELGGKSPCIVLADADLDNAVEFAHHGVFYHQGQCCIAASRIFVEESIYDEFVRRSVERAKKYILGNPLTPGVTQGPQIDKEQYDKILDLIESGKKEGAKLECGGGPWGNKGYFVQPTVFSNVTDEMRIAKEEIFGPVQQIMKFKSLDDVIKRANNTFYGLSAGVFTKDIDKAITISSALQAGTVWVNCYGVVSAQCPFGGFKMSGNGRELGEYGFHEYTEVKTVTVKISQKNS
Protocol: (§1) A common protocol to express and purify all three members of the ALDHIA subfamily has been optimized. Briefly, induced cells, collected by centrifugation, were re-suspended in an appropriate volume of lysis buffer (50 mM Na2HPO4, 300 mM NaCl, 1 mM β-mercaptoethanol, 20 mM imidazole, pH 7.5) added of benzonase nuclease (250 U/μL) and Protease inhibitor cocktail from SIGMA. After ultracentrifugation, the clarified sample was purified by a His-tag affinity chromatography followed by size-exclusion chromatography, using an AKTA FPLC system, at 4° C. To evaluate the purity and homogeneity of the protein, after each purification step, eluted d fractions were analyzed by SDS-PAGE and the protein quantification was always determined by Bradford protein assay.
(§2) IC50 evaluation: on a Tecan—SUNRISE, probe 13 was tested in a serial dilution series from 200 μM to 3, 125 μM, against all the three isoenzymes. The recipe of reaction buffer was: 20 mM Tris HCl pH=8, 150 mM KCl, 1 mM B-mercaptoethanol, 500 μM NAD^+, 15% DMSO fixed, 20 mM acetaldehyde and 2.7 μM each isoenzyme. The analysis was conducted measuring the NADH formation, that has a specific absorbance wavelength (340 nm). The test was performed in triplicate with all the three isoenzymes.

[2] = target: T2, ALDH1A2 (Homo sapiens, UniProt O94788); settings: 20 mM acetaldehyde, 500 μM NAD+, 15% DMSO, 2.7 μM isoenzyme, read-out: IC50
T2 construct: His-tag; made in house; host or cells: bacterial cells
T2 sequence (O94788 1-518): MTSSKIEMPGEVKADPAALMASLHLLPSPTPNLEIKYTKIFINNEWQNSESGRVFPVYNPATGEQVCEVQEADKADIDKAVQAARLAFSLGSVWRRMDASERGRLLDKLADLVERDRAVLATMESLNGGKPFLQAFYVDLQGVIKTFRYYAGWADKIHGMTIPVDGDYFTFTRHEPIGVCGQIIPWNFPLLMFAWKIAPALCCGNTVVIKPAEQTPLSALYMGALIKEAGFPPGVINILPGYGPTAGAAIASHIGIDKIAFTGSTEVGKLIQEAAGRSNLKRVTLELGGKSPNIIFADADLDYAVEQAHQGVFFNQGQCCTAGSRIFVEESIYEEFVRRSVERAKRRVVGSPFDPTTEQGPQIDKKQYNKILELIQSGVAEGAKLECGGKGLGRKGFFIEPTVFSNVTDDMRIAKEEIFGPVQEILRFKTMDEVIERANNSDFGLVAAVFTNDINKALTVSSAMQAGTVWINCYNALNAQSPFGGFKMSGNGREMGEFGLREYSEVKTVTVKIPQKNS
Protocol: as §1, §2

[3] = target: T3, ALDH1A3 (Homo sapiens, UniProt P47895); settings: ALDH1A3; 20 mM acetaldehyde, 500 μM NAD+, 15% DMSO, 2.7 μM isoenzyme; read-out: IC50
T3 construct: His-tag; made in house; host or cells: bacterial cells
T3 sequence (P47895 1-512): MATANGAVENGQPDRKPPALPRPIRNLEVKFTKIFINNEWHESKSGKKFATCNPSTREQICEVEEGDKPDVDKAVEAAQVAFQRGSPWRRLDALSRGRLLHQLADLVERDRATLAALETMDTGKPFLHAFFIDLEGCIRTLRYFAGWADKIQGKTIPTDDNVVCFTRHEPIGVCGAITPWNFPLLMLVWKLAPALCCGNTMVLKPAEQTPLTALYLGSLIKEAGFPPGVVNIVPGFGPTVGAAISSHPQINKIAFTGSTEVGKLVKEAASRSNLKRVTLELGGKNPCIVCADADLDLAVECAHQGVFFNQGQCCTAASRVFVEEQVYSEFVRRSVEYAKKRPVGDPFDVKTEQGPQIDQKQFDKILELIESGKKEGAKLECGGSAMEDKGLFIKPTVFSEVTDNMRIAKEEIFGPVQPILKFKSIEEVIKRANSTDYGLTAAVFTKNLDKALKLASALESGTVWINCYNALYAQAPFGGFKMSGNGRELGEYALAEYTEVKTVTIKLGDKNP
Protocol: as §1, §2

CCOC(=O)Cn1cc(COc2ccc(/C=C/C(O)=C/C(=O)/C=C/c3ccc(O)c(OC)c3)cc2OC)nn1 [Compound 14]
IC50 [1]: 114 µM | IC50 [2]: 92.8 µM | IC50 [3]: 14.5 µM

COc1cc(/C=C/C(=O)/C=C(O)/C=C/c2ccc(OCc3cn(CCOc4ccc(C=O)cc4)nn3)c(OC)c2)ccc1O [Compound 13]
IC50 [1]: 196 µM | IC50 [2]: 131 µM | IC50 [3]: 1.5 µM
